Source: patent publication US12606552B2, “Bifunctional compound, preparation method therefor, and use thereof” (SUZHOU KINTOR PHARMACEUTICALS, INC., priority 2020, dated 2026)

Biological target: T1, AR (Homo sapiens, UniProt P10275, T878A)
T1 sequence (P10275 1-920 T878A): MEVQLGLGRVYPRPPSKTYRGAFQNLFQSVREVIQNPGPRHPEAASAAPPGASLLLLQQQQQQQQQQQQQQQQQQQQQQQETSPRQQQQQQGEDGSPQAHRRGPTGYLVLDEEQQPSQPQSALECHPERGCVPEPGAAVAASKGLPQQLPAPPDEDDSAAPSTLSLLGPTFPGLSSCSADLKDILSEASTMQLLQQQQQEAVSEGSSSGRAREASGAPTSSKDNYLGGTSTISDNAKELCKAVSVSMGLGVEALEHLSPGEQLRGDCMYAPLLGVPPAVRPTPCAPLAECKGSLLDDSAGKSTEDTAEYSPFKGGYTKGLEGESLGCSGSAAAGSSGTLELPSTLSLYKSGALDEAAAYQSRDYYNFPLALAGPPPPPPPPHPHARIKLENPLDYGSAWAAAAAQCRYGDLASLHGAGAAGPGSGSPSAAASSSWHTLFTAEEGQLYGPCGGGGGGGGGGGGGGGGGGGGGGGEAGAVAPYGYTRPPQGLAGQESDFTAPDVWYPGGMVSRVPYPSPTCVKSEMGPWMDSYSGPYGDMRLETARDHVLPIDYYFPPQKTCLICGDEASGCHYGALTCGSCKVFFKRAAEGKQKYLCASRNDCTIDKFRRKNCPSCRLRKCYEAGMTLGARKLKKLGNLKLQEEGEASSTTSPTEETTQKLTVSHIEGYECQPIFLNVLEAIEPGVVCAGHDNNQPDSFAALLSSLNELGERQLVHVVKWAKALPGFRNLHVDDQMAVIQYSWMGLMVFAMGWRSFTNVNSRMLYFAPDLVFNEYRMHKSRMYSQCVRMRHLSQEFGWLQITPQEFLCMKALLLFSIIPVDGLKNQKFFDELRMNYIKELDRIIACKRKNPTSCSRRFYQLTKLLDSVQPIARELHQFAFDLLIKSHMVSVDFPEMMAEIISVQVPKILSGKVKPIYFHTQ
Assay: Effects of compounds on AR expression in LNCaP cells (ELISA, DC50)
Format: cell-based
Parameters: Measurement of the Effects of Drugs on the Expression of AR in Cells by ELISA Method; endogenous in cells; host or cells: LNCaP
Conditions: 24 hours of drug treatment, AR by ELISA
Procedure: Activity Assay Example 1: Effects of Compounds on AR Expression in LNCaP Cells
1. Cell Line and Cell Culture
Human prostate cancer cells LNCaP (Shanghai Chinese Academy of Sciences Cell Bank). LNCaP was cultured in 1640 medium containing 10% fetal bovine serum. The cells grow in clusters, with weak adhesion to the bottom of the culture flask, slow proliferation, with a multiplication time of 72 h. The cells are closely adhered to each other and need to be digested with 0.05% trypsin containing 0.025% EDTA. The cells were passaged every 3 days. The cells were cultured at 37° C. and 5% CO2 in a humidified incubator
2. Cell plating: The supernatant was discarded, and the Lncap cells in the logarithmic growth phase were taken, washed with PBS once, and added with appropriate 0.05% trypsin digestion solution to be fully digested into single cell suspension, and centrifuged, resuspended and counted to make the number of cells about 15,000 per well, then inoculated in a 96-well plate, placed at 37° C., 5% CO2 and cultured overnight for 24 h.
3. Preparation and Addition of Compound Solutions
About 2 mg of each compound was weighed and dissolved in DMSO to make the stock solution with a concentration of 10 mmol/L. Dilution process (final concentration dilution: 2, 0.667, 0.222, 0.074, 0.0245, 0.008, 0.003, 0.001, 0.0003, 0.0001 μmol/L): 10 centrifuge tubes with a volume of 1.5 mL were taken and numbered 1, 2, 3, 4, 5, 6, 7, 8, 9, and 10, 80 μL DMSO was added to tube No. 1, and 60 μL DMSO was added to tubes No. 2 to No. 10, 20 μL of the stock solution was pipetted to tube No. 1 and mixed well; 30 μL was pipetted from tube No. 1 into tube No. 2 and mixed well. 30 μL was pipetted from tube No. 2 into tube No. 3 and mixed well, and so forth, to obtain samples No. 4-10, and to obtain working solutions of compounds of different concentrations respectively. 2 μL was pipetted from the above-mentioned tubes No. 1-10 into each corresponding sterile deep-well plates, added with 198 μL of culture medium, and mixed well. 11 ul was added to each well of the 96-well cell plate cultured overnight to obtain the corresponding desired concentrations (2, 0.667, 0.222, 0.074, 0.0245, 0.008, 0.003, 0.001, 0.0003, 0.0001 μmol/L).
4. Measurement of the Effects of Drugs on the Expression of AR in Cells by ELISA Method
After 24 hours of drug treatment, the supernatant was removed, and 200 μL of PBS was added to wash cells, and then the supernatant was removed, and 100 μL of cell lysate was added to lyse cells on ice for 20 min, then the cell lysate was centrifuged at 4000 rpm for 20 min at 4° C. and the supernatant was taken for later use. The measurement steps of the supernatant were according to the ELISA kit instructions:
4.1 The slats required for the test were taken out from the sealed bag that has been equilibrated to room temperature. Please put the unused slats and desiccant back into the aluminum foil bag and compress the self-sealing strip, seal the bag, and store at 4° C.
4.2 Standards and sample diluents were added to blank wells, and different concentrations of standards (10 ul/well) and sample diluents (90 ul/well) were added to the remaining corresponding wells, and the reaction wells were sealed with sealing tape, and refrigerated at 4° C. overnight.
4.3 Primary antibody was diluted with dilution buffer to the corresponding concentration and added to each well in 100 ul/well. The reaction wells were sealed with sealing tape and incubated at 37° C. for 60 min.
4.4 Secondary antibody was diluted with dilution buffer to the corresponding concentration and added to each well in 100 ul/well. The reaction wells were sealed with sealing tape and incubated at 37° C. for 30 min.
4.5 The reaction wells were added with 100 ul/well of substrate (TMB) and incubated at room temperature for 30 min.
4.6 The reaction wells were added with 100 ul/well of stop solution, mixed well and then the OD450 value was measured with a microplate reader. […]

First: Cc1ncsc1-c1ccc(CNC(=O)[C@@H]2C[C@@H](O)CN2C(=O)[C@@H](NC(=O)CN2CCN(CCc3ccc(-c4ccc(N5C(=S)N(c6ccc(C#N)c(C(F)(F)F)c6F)C(=O)C5(C)C)cn4)cc3)CC2)C(C)(C)C)cc1 [Compound A69]
Second: Cc1ncsc1-c1ccc(CNC(=O)[C@@H]2C[C@@H](O)CN2C(=O)[C@@H](NC(=O)CCn2cc(COc3ccc(-c4ccc(N5C(=S)N(c6ccc(C#N)c(C(F)(F)F)c6F)C(=O)C5(C)C)cn4)cc3)nn2)C(C)(C)C)cc1 [Compound A80]
The DC50 of the first is 2.9-fold lower: 39.4 nM for the first, 116 nM for the second.

Compared with `Cc1ncsc1-c1ccc(CNC(=O)[C@@H]2C[C@@H](O)CN2C(=O)[C@@H](NC(=O)[C@H]2CC[C@H](CNC(=O)c3ccc(-c4ccc(N5C(=S)N(c6ccc(C#N)c(C(F)(F)F)c6F)C(=O)C5(C)C)cn4)cc3)CC2)C(C)(C)C)cc1` [Compound A59], `Cc1ncsc1-c1ccc(CNC(=O)[C@@H]2C[C@@H](O)CN2C(=O)[C@@H](NC(=O)Cc2ccc(C(=O)Nc3ccc(-c4ccc(N5C(=S)N(c6ccc(C#N)c(C(F)(F)F)c6F)C(=O)C5(C)C)cn4)cc3)cc2)C(C)(C)C)cc1` [Compound A240] is 5.4-fold higher in DC50: 48.6 nM for the first, 264 nM for the second.

Going from `Cc1ncsc1-c1ccc(CNC(=O)[C@@H]2C[C@@H](O)CN2C(=O)[C@@H](NC(=O)COCCC(F)(F)COc2ccc(-c3ncc(N4C(=S)N(c5ccc(C#N)c(C(F)(F)F)c5F)C(=O)C4(C)C)cc3F)cc2F)C(C)(C)C)cc1` [Compound A163] to `CC(C)(C)[C@H](NC(=O)COCCCCOc1ccc(-c2ncc(N3C(=S)N(c4ccc(C#N)c(C(F)(F)F)c4F)C(=O)C3(C)C)cc2F)cc1F)C(=O)N1C[C@H](O)C[C@H]1C(=O)NCc1ccc(C(N)=O)cc1` [Compound A119], the DC50 falls from 171 nM to 7.2 nM (24-fold).

`Cc1ncsc1-c1ccc(CNC(=O)[C@@H]2C[C@@H](O)CN2C(=O)[C@@H](NC(=O)COCC(F)C(F)COc2ccc(-c3ccc(N4C(=S)N(c5ccc(C#N)c(C(F)(F)F)c5F)C(=O)C4(C)C)cn3)cc2)C(C)(C)C)cc1` (stereo partly shown) [Compound A169] and `Cc1ncsc1-c1ccc(CNC(=O)[C@@H]2C[C@@H](O)CN2C(=O)[C@@H](NC(=O)CCc2ccc(C(=O)Nc3ccc(-c4ccc(N5C(=S)N(c6ccc(C#N)c(C(F)(F)F)c6F)C(=O)C5(C)C)cn4)cc3)cc2)C(C)(C)C)cc1` [Compound A252] are within 1.5-fold of each other in DC50: 92.6 nM for the first, 95.9 nM for the second.

Compared with `Cc1ncoc1-c1c[nH]c([C@@H]2C[C@@H](O)CN2C(=O)[C@@H](NC(=O)COCCCCOc2ccc(-c3ccc(N4C(=S)N(c5ccc(C#N)c(C(F)(F)F)c5F)C(=O)C4(C)C)cn3)cc2)C(C)(C)C)n1` [Compound A225], `Cn1cncc1-c1c[nH]c([C@@H]2C[C@@H](O)CN2C(=O)[C@@H](NC(=O)COCCCCOc2ccc(-c3ccc(N4C(=S)N(c5ccc(C#N)c(C(F)(F)F)c5F)C(=O)C4(C)C)cn3)cc2)C(C)(C)C)n1` [Compound A232] is 2.2-fold lower in DC50: 92.1 nM for the first, 41.3 nM for the second.

Going from `CC(C)(C)[C@H](NC(=O)COCCCCOc1ccc(-c2ccc(N3C(=S)N(c4ccc(C#N)c(C(F)(F)F)c4F)C(=O)C3(C)C)cn2)cc1)C(=O)N1C[C@H](O)C[C@H]1c1nc(-c2cccnc2)c[nH]1` [Compound A214] to `CC(C)(C)[C@H](NC(=O)COCCCCOc1ccc(-c2ccc(N3C(=S)N(c4ccc(C#N)c(C(F)(F)F)c4F)C(=O)C3(C)C)cn2)cc1)C(=O)N1C[C@H](O)C[C@H]1c1nc(-c2cncnc2)c[nH]1` [Compound A228], the DC50 falls from 173 nM to 107 nM (1.6-fold).

First: Cc1ncsc1-c1ccc(CNC(=O)[C@@H]2C[C@@H](O)CN2C(=O)[C@@H]2CCCN2C(=O)COCCCCOc2ccc(-c3ncc(N4C(=S)N(c5ccc(C#N)c(C(F)(F)F)c5F)C(=O)C4(C)C)cc3F)cc2F)cc1 [Compound A142]
Second: CC(C)(C)[C@H](NC(=O)COCCOc1ccc(-c2ncc(N3C(=S)N(c4ccc(C#N)c(C(F)(F)F)c4F)C(=O)C3(C)C)cc2F)cc1F)C(=O)N1C[C@H](O)C[C@H]1C(=O)NCc1ccccc1 [Compound A130]
The DC50 of the first is higher: over 2000 nM for the first, 131 nM for the second.

Compared with `Cc1ncsc1-c1ccc([C@H](C)NC(=O)[C@@H]2C[C@@H](O)CN2C(=O)[C@@H](NC(=O)COCCC(F)COc2c(F)cc(-c3ncc(N4C(=S)N(c5ccc(C#N)c(C(F)(F)F)c5F)C(=O)C4(C)C)cc3F)cc2F)C(C)(C)C)cc1` (stereo partly shown) [Compound A149], `Cc1cc(C(C(=O)N2C[C@H](O)C[C@H]2C(=O)N[C@@H](CC(=O)NCCCOc2ccc(-c3ncc(N4C(=S)N(c5ccc(C#N)c(C(F)(F)F)c5F)C(=O)C4(C)C)cc3F)cc2F)c2ccc(-c3scnc3C)cc2)C(C)C)on1` (stereo partly shown) [Compound A172] is 1.5-fold higher in DC50: 111 nM for the first, 170 nM for the second.

`CC(C)(C)[C@H](NC(=O)COCCCCOc1c(F)cc(-c2ncc(N3C(=S)N(c4ccc(C#N)c(C(F)(F)F)c4F)C(=O)C3(C)C)cc2C(F)(F)F)cc1F)C(=O)N1C[C@H](O)C[C@H]1C(=O)NCc1ccccc1` [Compound A114] and `Cc1ncoc1-c1c[nH]c([C@@H]2C[C@@H](O)CN2C(=O)[C@@H](NC(=O)COCCCCOc2ccc(-c3ncc(N4C(=S)N(c5ccc(C#N)c(C(F)(F)F)c5F)C(=O)C4(C)C)cc3F)c(C(F)(F)F)c2)C(C)(C)C)n1` [Compound A224] are within 1.5-fold of each other in DC50: 79.3 nM for the first, 75.7 nM for the second.

Compared with `CC1(C)C(=O)N(c2ccc(C#N)c(C(F)(F)F)c2F)C(=S)N1c1ccc(-c2ccc(OCCNC(=O)COc3ccc4c(c3)C(=O)N(C3CCC(=O)NC3=O)C4=O)cc2)nc1` (stereo not shown) [Compound A38], `CC1(C)C(=O)N(c2ccc(C#N)c(C(F)(F)F)c2F)C(=S)N1c1cnc(-c2ccc(OCCNC(=O)COc3ccc4c(c3)C(=O)N(C3CCC(=O)NC3=O)C4=O)c(F)c2)c(F)c1` (stereo not shown) [Compound A40] is 2-fold lower in DC50: 58.6 nM for the first, 29.8 nM for the second.

Compared with `Cc1cc(C(C(=O)N2C[C@H](O)C[C@H]2C(=O)N[C@@H](CC(=O)N2CCC(Oc3ccc(-c4ncc(N5C(=S)N(c6ccc(C#N)c(C(F)(F)F)c6F)C(=O)C5(C)C)cc4F)c(C(F)(F)F)c3)CC2)c2ccc(-c3scnc3C)cc2)C(C)C)on1` (stereo partly shown) [Compound A183], `CC1(C)C(=O)N(c2ccc(C#N)c(C(F)(F)F)c2F)C(=S)N1c1ccc([C@@H]2C[C@H]2C(=O)NCCCCNC(=O)COc2cccc3c2C(=O)N(C2CCC(=O)NC2=O)C3=O)nc1` (stereo partly shown) [Compound A28] is higher in DC50: 151 nM for the first, over 2000 nM for the second.
